# From ChEMBL document CHEMBL1150878, “Novel cytotoxic diterpenes, excavatolides A-E, isolated from the Formosan gorgonian Briareum excavatum” (1998)
# Legend:
# Assay type in all cases: functional
# Conditions in all cases: read-out: ED50 (the source's name)
# KB = test: Cytotoxicity against human KB cells by MTT assay
# HT-29 = test: Cytotoxicity against human HT-29 cells by MTT assay
# P388 = test: Cytotoxicity against mouse P388 cells by MTT assay
# A549 = test: Cytotoxicity against human A549 cells by MTT assay
SMILES,EC50 (KB) [µg/mL],EC50 (HT-29) [µg/mL],EC50 (P388) [µg/mL],EC50 (A549) [µg/mL]
C=C1[C@H]2O[C@H]2[C@@]2(O)[C@@]3(C)[C@H]4O[C@H]4[C@H](OC(C)=O)[C@H](C)[C@@H]3[C@@]2(OC(C)=O)[C@]2(O)[C@@H](C)C(=O)O[C@H]2[C@H]1Cl [BRIANOLIDE],> 50,> 50,> 50,> 50
CC(=O)O[C@H]1C[C@H](OC(C)=O)[C@@]2(C)[C@H]([C@H]1C)[C@]1(O)[C@@]2(OC(C)=O)CC/C(C)=C\[C@@H]2OC(=O)[C@@]3(C)O[C@@]213,> 50,4.4,5.8,37.2
C=C1[C@@H]2C[C@@]3(OC(C)=O)[C@@]4(C)[C@@H](OC(C)=O)CC=C(C)[C@@H]4[C@@]3(O)[C@]3(O2)[C@@H](C)C(=O)O[C@H]3[C@H]1Cl [EXCAVATOLIDE A],2.5,> 50,> 50,21.9
CC(=O)O[C@H]1C[C@H](O)[C@H](C)[C@H]2[C@@]1(C)[C@]1(OC(C)=O)[C@@H](OC(C)=O)C/C(C)=C\[C@@H]3OC(=O)[C@@]4(C)O[C@]34[C@]21OC(C)=O [EXCAVATOLIDE C],1.9,1.9,0.3,1.9
CC(=O)O[C@H]1C[C@H](O)[C@H](C)[C@H]2[C@@]1(C)[C@]1(OC(C)=O)CC/C(C)=C\[C@@H]3OC(=O)[C@@]4(C)O[C@]34[C@]21O [EXCAVATOLIDE E],0.8,1.6,1.6,1.2
CCCC(=O)O[C@H]1C/C(C)=C\[C@@H]2OC(=O)[C@@]3(C)O[C@]23[C@]2(OC(C)=O)[C@H]3[C@@H](C)[C@@H](O)C[C@H](OC(C)=O)[C@]3(C)[C@]12OC(C)=O [EXCAVATOLIDE B],> 50,> 50,> 50,> 50
CC(=O)O[C@H]1C[C@H](O)[C@H](C)[C@H]2[C@@]1(C)[C@]1(O)[C@@H](OC(C)=O)C/C(C)=C\[C@@H]3OC(=O)[C@@]4(C)O[C@]34[C@]21OC(C)=O [EXCAVATOLIDE D],4.2,1.3,1.8,> 50
